Results on 11 compounds are retold here after ChEMBL document CHEMBL1201862, “PubChem BioAssay data set” (2004).

Some test systems named below: IGROV-1; MDA-N; HCT-116; NCI/ADR-RES; TK-10; UO-31; K562; MDA-MB-435; HCT-15; U-251; NCI-H522; UACC-257; SR; NCI-H460; EKVX; PC-3; NCI-H23; SK-OV-3; SNB-75; HCC 2998.
Assay in all cases: growth of human tumour cells (NCI), 48 h

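Results reflect a 48-hour exposure of cells in 96-well plates to compound at five concentrations. At the GI50, growth is halved.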 Calls of active or inactive are those of the source. Cut-off read from the data, not from the text of the source: active = GI50 up to about 1.1 µM and inactive = higher. Some results are limits rather than exact numbers.

Regarding `COc1cc(NCCC(=O)O)c2ncccc2c1`, the GI50 with IGROV-1, in the experiment on MDA-N, in the experiment on HCT-116, in the experiment with NCI/ADR-RES, with TK-10 and in the experiment on UO-31 was > 100 µM (inactive) each time. The GI50 was > 100 µM (inactive) in the experiment with K562; > 100 µM (inactive) with MDA-MB-435; above 100 µM with HCT-15; > 100 µM (inactive) in the experiment on U-251; > 100 µM (inactive) with NCI-H522; > 100 µM (inactive) with UACC-257. For the same compound, the GI50 with SR, in the experiment on NCI-H460, in the experiment with EKVX, in the experiment with PC-3 and with NCI-H23 was > 100 µM (inactive) each time.

Regarding `COc1ccc(C(=O)/C=C/c2cccnc2)cc1OC`, the GI50 is 9.64 µM (inactive) in the experiment on IGROV-1; 12.4 µM (inactive) with MDA-N; 4.36 µM (inactive) in the experiment with HCT-116; 14.5 µM (inactive) in the experiment on NCI/ADR-RES; 15.7 µM (inactive) in the experiment with TK-10; 13.5 µM (inactive) in the experiment with UO-31. Moreover, the GI50 with K562 was 13.9 µM (inactive); in the experiment on MDA-MB-435, 14.8 µM (inactive); in the experiment on HCT-15, 11.4 µM; in the experiment on U-251 it was 5.09 µM (inactive); in the experiment on NCI-H522 it was 1.83 µM (inactive); with SK-OV-3, 15.3 µM (inactive). Besides, the GI50 in the experiment with UACC-257 is 15.6 µM (inactive); in the experiment on SNB-75, 11.8 µM (inactive); in the experiment with SR it was 1.54 µM (inactive); in the experiment with EKVX, 15.1 µM (inactive); in the experiment on PC-3, 14.7 µM (inactive); in the experiment on NCI-H23 it was 10.6 µM (inactive).

On to `C[C@]12CC/C(=N\O)C=C1CC[C@@H]1[C@@H]2CC[C@]2(C)C(=N/O)/C(=C/c3ccc([N+](=O)[O-])cc3)C[C@@H]12`, for which the GI50 is 2.86 µM (inactive) in the experiment with IGROV-1; 4.03 µM (inactive) in the experiment on MDA-N; 3.07 µM (inactive) in the experiment on HCT-116; 5.13 µM (inactive) with NCI/ADR-RES; 6.41 µM (inactive) in the experiment with TK-10; 2.67 µM (inactive) in the experiment on UO-31. Further, the GI50 in the experiment with K562 is 3.37 µM (inactive); in the experiment on MDA-MB-435, 3.6 µM (inactive); with HCT-15, 3.44 µM; with NCI-H522, 2.59 µM (inactive); with SK-OV-3, 15.5 µM (inactive); in the experiment with UACC-257 it was 4.66 µM (inactive). Further, the GI50 with SNB-75 is 6 µM (inactive); with SR, 2.79 µM (inactive); with NCI-H460, 44.8 µM (inactive); with PC-3 it was 4.8 µM (inactive); in the experiment with NCI-H23, 6 µM (inactive).

For `CC(C)OP(=O)(CN(C)/C(F)=N\C(F)(F)F)OC(C)C`, the GI50 in the experiment with IGROV-1, with MDA-N, in the experiment on HCT-116, in the experiment with NCI/ADR-RES, in the experiment with TK-10 and in the experiment with UO-31 was > 100 µM (inactive) each time. Besides, the GI50 in the experiment with K562 is > 100 µM (inactive); in the experiment on MDA-MB-435, > 100 µM (inactive); in the experiment on HCC 2998 it was > 100 µM (inactive); with HCT-15 it was above 100 µM; in the experiment with U-251 it was > 100 µM (inactive); in the experiment on NCI-H522 it was 8.2 µM (inactive). Moreover, the GI50 with SK-OV-3, with UACC-257, in the experiment with SNB-75, in the experiment on NCI-H460, in the experiment on EKVX and in the experiment with PC-3 was > 100 µM (inactive) each time. Also, in the experiment with NCI-H23, the GI50 was > 100 µM (inactive).

Turning to `CC1=C(C)C2(C#N)C(=O)N3C(=NC(c4ccco4)NC3c3ccco3)C2(C#N)C(c2ccco2)N1` (configuration not stated), the GI50 with IGROV-1, with MDA-N, with HCT-116, in the experiment on NCI/ADR-RES, in the experiment on TK-10 and in the experiment with UO-31 was > 100 µM (inactive) throughout. For the same compound, the GI50 with MDA-MB-435 was > 100 µM (inactive); in the experiment on HCC 2998, > 100 µM (inactive); in the experiment with HCT-15, above 100 µM; in the experiment with U-251, > 100 µM (inactive); in the experiment on NCI-H522, > 100 µM (inactive); in the experiment on SK-OV-3, > 100 µM (inactive). Also, the GI50 with UACC-257, with SR, in the experiment on NCI-H460, with EKVX, in the experiment on PC-3 and in the experiment with NCI-H23 was > 100 µM (inactive) throughout.

Consider `OC1c2ccccc2C(O)C2OC12` (configuration not stated), for which the GI50 with IGROV-1, in the experiment on MDA-N, in the experiment on HCT-116, with NCI/ADR-RES, with TK-10 and in the experiment with UO-31 was > 100 µM (inactive) throughout. Moreover, the GI50 in the experiment with K562 was > 100 µM (inactive); with MDA-MB-435 it was > 100 µM (inactive); in the experiment on HCT-15, above 100 µM; in the experiment with U-251 it was > 100 µM (inactive); in the experiment with NCI-H522 it was > 100 µM (inactive); in the experiment with SK-OV-3, > 100 µM (inactive). For the same compound, the GI50 in the experiment with UACC-257, in the experiment on SR, in the experiment with NCI-H460, in the experiment on PC-3 and in the experiment on NCI-H23 was > 100 µM (inactive) throughout.

`O=c1[nH]nc(-c2ccccc2)n1O`: the GI50 in the experiment on IGROV-1, in the experiment with MDA-N, in the experiment with HCT-116, in the experiment on NCI/ADR-RES, with TK-10 and in the experiment with UO-31 was > 100 µM (inactive) throughout. Besides, the GI50 in the experiment with K562 is > 100 µM (inactive); in the experiment on MDA-MB-435, > 100 µM (inactive); in the experiment on HCC 2998, > 100 µM (inactive); in the experiment with HCT-15 it was above 100 µM; in the experiment with U-251 it was > 100 µM (inactive); with NCI-H522, > 100 µM (inactive). Moreover, the GI50 in the experiment on SK-OV-3, in the experiment on UACC-257, with SR, in the experiment with NCI-H460, with EKVX and in the experiment with PC-3 was > 100 µM (inactive) each time. Also, the GI50 with NCI-H23 is > 100 µM (inactive).

In the case of `Cc1ccc(/C=C2\NC(=S)N(CN3CCOCC3)C2=O)cc1`, the GI50 in the experiment on IGROV-1, with MDA-N, with HCT-116, in the experiment on NCI/ADR-RES, in the experiment with TK-10 and with UO-31 was > 100 µM (inactive) in each case. The GI50 is > 100 µM (inactive) in the experiment with K562; > 100 µM (inactive) in the experiment with MDA-MB-435; above 100 µM with HCT-15; > 100 µM (inactive) with U-251; > 100 µM (inactive) in the experiment with SK-OV-3; > 100 µM (inactive) in the experiment on UACC-257. Besides, the GI50 in the experiment with SNB-75, in the experiment on SR, with EKVX, in the experiment on PC-3 and in the experiment with NCI-H23 was > 100 µM (inactive) throughout.

For `CCOc1cc2c(cc1O)CC[C@@H]1[C@@H]2CC[C@]2(C)C(N)CC[C@@H]12` (some centres not stated), the GI50 with IGROV-1 is 3.78 µM (inactive); with MDA-N it was 1.44 µM (inactive); in the experiment with HCT-116 it was 3.05 µM (inactive); in the experiment with NCI/ADR-RES it was 2.69 µM (inactive); in the experiment on TK-10 it was 9.2 µM (inactive); in the experiment with UO-31 it was 3.54 µM (inactive). Further, the GI50 is 3.89 µM (inactive) in the experiment on K562; 1.63 µM (inactive) with MDA-MB-435; 2.22 µM (inactive) in the experiment with HCC 2998; 3.4 µM in the experiment on HCT-15; 2.89 µM (inactive) in the experiment on U-251; 3.45 µM (inactive) with NCI-H522. For the same compound, the GI50 is 3.19 µM (inactive) with SK-OV-3; 3.44 µM (inactive) in the experiment on UACC-257; 2.1 µM (inactive) with SNB-75; 2.91 µM (inactive) in the experiment with NCI-H460; 4.27 µM (inactive) in the experiment on EKVX; 2.93 µM (inactive) in the experiment on PC-3. Besides, the GI50 in the experiment on NCI-H23 was 3.48 µM (inactive).

Turning to `CN(C)C(=O)Oc1ccc(C(=S)Nc2ccccc2)cc1Br`, the GI50 in the experiment with IGROV-1 is 21 µM (inactive); in the experiment with MDA-N it was 21.7 µM (inactive); in the experiment on HCT-116, 34 µM (inactive); in the experiment on NCI/ADR-RES it was 20.4 µM (inactive); with UO-31, 33.5 µM (inactive); in the experiment with K562, 18.7 µM (inactive). Further, the GI50 with MDA-MB-435 was 19.5 µM (inactive); in the experiment with HCC 2998, 33.1 µM (inactive); with HCT-15, 28.9 µM; in the experiment with U-251, 83 µM (inactive); in the experiment on NCI-H522, 14.8 µM (inactive); with SK-OV-3, > 100 µM (inactive). Further, the GI50 was 24.7 µM (inactive) with UACC-257; 16.1 µM (inactive) in the experiment on SR; 23.1 µM (inactive) in the experiment with NCI-H460; 32.5 µM (inactive) with EKVX; 27.7 µM (inactive) with PC-3; 22.9 µM (inactive) with NCI-H23.

Take `O=[N+]([O-])c1cccc2c(/N=N/c3ccc4ccccc4c3O)c(O)cc(S(=O)(=O)O)c12`: the GI50 in the experiment with IGROV-1 is 7.29 µM (inactive); in the experiment with MDA-N it was 31.1 µM (inactive); in the experiment on HCT-116 it was 31 µM (inactive); in the experiment on NCI/ADR-RES it was 17 µM (inactive); in the experiment on TK-10, 49.7 µM (inactive); with UO-31, 6.03 µM (inactive). The GI50 was > 100 µM (inactive) with K562; 23.8 µM (inactive) with MDA-MB-435; 14.1 µM with HCT-15; 9.59 µM (inactive) in the experiment on U-251; 7.36 µM (inactive) in the experiment on NCI-H522; 76.2 µM (inactive) in the experiment with SK-OV-3. The GI50 in the experiment on UACC-257 is 31.8 µM (inactive); in the experiment with SNB-75, 44 µM (inactive); with SR, 2.82 µM (inactive); with EKVX it was 79.3 µM (inactive); with PC-3, 18.8 µM (inactive); with NCI-H23, 33.3 µM (inactive).
